Measured values published in patent US20230255974A1, “USE OF THYROMIMETICS FOR THE TREATMENT OF CANCER” (THE UNIVERSITY OF VERMONT, priority 2020, published 2023).

Key:
[1] = tested on: MDA-MB-453 cells; experiment: Relative cell growth by cell counting, HER2+ breast cancer cells; assay type: cell-based; conditions: MDA-MB-453, 10 nM GC-1, 8 days
Method: A similar study was then performed in MDA-MB-453 cells, human epidermal growth factor positive-HER2+, breast cancer cells.

[2] = tested on: MCF7; experiment: Mammosphere growth, Luminal A breast cancer cells; assay type: cell-based; conditions: MCF7, 10 nM GC-1, 5 days
Description: Data are mean+/−SD; * indicates p<0.05 determined by t-test.

Cc1nc(NC(=O)N2CCC[C@H]2C(N)=O)sc1-c1ccnc(C(C)(C)C(F)(F)F)c1 [Alpelisib, (2S)-1-N-[4-methyl-5-[2-(1,1,1-trifluoro-2-methylpropan-2-yl)pyridin-4-yl]-1,3-thiazol-2-yl]pyrrolidine-1,2-dicarboxamide]
cell growth, inhibitor in the presence of GC-1 [1]: enhanced the effect of Alpelisib in reducing cell growth | effect of inhibitor in the presence of GC-1 [2]: enhanced the effect
